Among the data in patent publication US8987313B2, “Inhibitors of cytochrome P450” (Gilead Sciences, Inc., priority 2010, dated 2015) are IC50 values, retold here.

The data set deals with CYP3A4 (Homo sapiens (Human), UniProt P08684). The experiment in a line: CYP3A Inhibition Assay (human hepatic microsomes; midazolam 1'-hydroxylase and testosterone 6β-hydroxylase activities). As to conditions: pooled human hepatic microsomal fraction. The procedure:
Pooled (n≧15 donors) human hepatic microsomal fraction was obtained from BD-Gentest (Woburn, Mass.) who also supplied hydroxy-terfenadine, 4′-hydroxydiclofenac and NADPH regenerating system. Ritonavir was prepared from commercial Norvir® oral solution (Abbott Laboratories, Abbott Park, Ill.). Other reagents were from Sigma-Aldrich (St. Louis, Mo.) and included terfenadine, fexofenadine, BRL 15572, diclofenac and mefenamic acid.
Incubations were performed in duplicate in 50 mM potassium phosphate buffer, pH 7.4 with NADPH regenerating system used as described by the manufacturer. […] The final substrate concentrations used were equal to the apparent Km values for the activities determined under the same conditions. Inhibitors were dissolved in DMSO, and the final concentration of DMSO, from both substrate and inhibitor vehicles, was 1% (v/v). Incubations were performed at 37° C. with shaking and were initiated by addition of substrate. Aliquots were then removed at […]. Samples were quenched by treatment with an acetonitrile, formic acid, water (94.8%/0.2%/5%, v/v/v) mixture containing internal standard. Precipitated protein was removed by centrifugation at 3000 rpm for […] and aliquots of the supernatant were then subjected to LC-MS analysis.
The LC-MS system consisted of a Waters Acquity UPLC, with a binary solvent manager and a refrigerated (8° C.) sample organizer and sample manager, interfaced to a Micromass Quattro Premier tandem mass spectrometer operating in electrospray ionization mode. The column was a Waters Acquity UPLC BEH C18 2.1×50 mm, […]. Mobile phases consisted of mixtures of acetonitrile, formic acid and water, the composition for mobile phase A being 1%/0.2%/98.8% (v/v/v) and that for mobile phase B being 94.8%/0.2%/5% (v/v/v). The injection volumes were 5 μL and the flow rate was 0.8 mL/min. Concentrations of metabolites were determined by reference to standard curves generated with authentic analytes under the same conditions as the incubations.
IC50 values (the concentration of inhibitor reducing CYP3A activity by 50%) were calculated by non-linear regression using GraphPad Prism 4.0 software and a sigmoidal model.
For midazolam hydroxylase determination the final concentrations of microsomal protein and […] substrate were 0.25 mg/mL and 2.5 μM, respectively, and the LC-MS internal standard was 1α-hydroxytriazolam. […] After incubation at 37° C. for 5 minutes, metabolic reactions were terminated by treatment with quench solution containing the appropriate internal standard and were subsequently centrifuged before aliquots of the supernatant were removed and diluted with 0.1% (v/v) formic acid for LC-MS analysis.
For LC-MS analysis the column was a Phenomenex Synergi Max RP 4 μm column (50×2.0 mm) and the injection volume was 5 μL. The MS/MS ion current metabolite/internal standard peak area ratios (PAR) were measured on an Applied Biosystems SciEx API4000 triple quadrupole mass spectrometer coupled to a Leap CTC PAL autosampler with a 20 μL loop and a Shimadzu LC pump with a 25 μL mixer.

[1] abbreviates: read-out: CYP3A4 IC50 (μM) (midazolam), midazolam 1'-hydroxylase activity.
The mark [2] stands for this setting: read-out: CYP3A4 IC50 (μM) (testosterone), testosterone 6β-hydroxylase activity.

Read-outs that look alike come from different tables or passages of the source. Bounds are passed on as bounds.

CYP3A4, sequence (P08684 whole entry): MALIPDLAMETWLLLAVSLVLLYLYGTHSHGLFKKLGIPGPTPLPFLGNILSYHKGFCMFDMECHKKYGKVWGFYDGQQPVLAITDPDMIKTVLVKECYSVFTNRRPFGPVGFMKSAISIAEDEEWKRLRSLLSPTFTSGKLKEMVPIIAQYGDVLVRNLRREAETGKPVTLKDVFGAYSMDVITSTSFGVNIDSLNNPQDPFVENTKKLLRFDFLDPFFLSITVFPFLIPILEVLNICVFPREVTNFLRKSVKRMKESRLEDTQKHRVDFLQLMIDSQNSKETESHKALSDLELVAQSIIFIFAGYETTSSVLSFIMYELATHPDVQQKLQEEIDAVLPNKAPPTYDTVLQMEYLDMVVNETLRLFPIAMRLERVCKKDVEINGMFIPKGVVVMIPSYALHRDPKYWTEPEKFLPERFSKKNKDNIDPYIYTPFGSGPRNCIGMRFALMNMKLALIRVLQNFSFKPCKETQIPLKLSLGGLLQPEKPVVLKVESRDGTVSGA

By IC50 is commonly meant the concentration that gives 50% inhibition. As for `CC(C)c1nc(CN(C)C(=O)N2C[C@H](O)C[C@H]2C(=O)N[C@H](CC[C@H](Cc2ccccc2)NC(=O)OCc2cncs2)Cc2ccccc2)cs1` [Compound 5], the half-inhibitory concentration (IC50) under setting [1] was determined as 0.16 µM and the IC50 under setting [2] was found to be 0.23 µM.

With `CC(C)c1nc(CN(C)C(=O)N2C[C@@H](O)C[C@H]2C(=O)N[C@H](CC[C@H](Cc2ccccc2)NC(=O)OCc2cncs2)Cc2ccccc2)cs1` [Compound 8], the 50% inhibitory concentration (IC50) was found to be 0.17 µM under setting [1] and 0.24 µM under setting [2].

Consider `CC(C)c1nc(CN(C)C(=O)N2C[C@H](O)C[C@H]2C(=O)N[C@@H](CC[C@@H](Cc2ccccc2)NC(=O)OCc2cncs2)Cc2ccccc2)cs1` [Compound 11], for which the 50% inhibitory concentration (IC50) under setting [1] was determined as 0.12 µM and the IC50 under setting [2] came out at 0.3 µM.

Consider `CC(C)c1nc(CN(C)C(=O)N2CS(=O)(=O)C[C@H]2C(=O)N[C@H](CC[C@H](Cc2ccccc2)NC(=O)OCc2cncs2)Cc2ccccc2)cs1` [Compound 18], for which the IC50 was determined as 0.16 µM under setting [1] and 0.26 µM under setting [2].

For `CC(C)c1nc(CN(C)C(=O)NC2(C(=O)N[C@H](CC[C@H](Cc3ccccc3)NC(=O)OCc3cncs3)Cc3ccccc3)CCN(C)CC2)cs1` [Compound 21], the IC50 runs as follows: under setting [1], 0.19 µM; under setting [2], 0.34 µM.

Turning to `CC(C)c1nc(CN(C)C(=O)N2CCN(C)C[C@H]2C(=O)N[C@H](CC[C@H](Cc2ccccc2)NC(=O)OCc2cncs2)Cc2ccccc2)cs1` [Compound 25], the IC50 under setting [1] was 0.14 µM and the half-inhibitory concentration (IC50) under setting [2] amounted to 0.3 µM.

Regarding `CC(C)c1nc(CN(C)C(=O)N2C[C@@H](N)C[C@H]2C(=O)N[C@H](CC[C@H](Cc2ccccc2)NC(=O)OCc2cncs2)Cc2ccccc2)cs1` [Compound 29], the IC50 under setting [1] is 0.19 µM and the IC50 under setting [2] was 0.31 µM.

Take `CN[C@H]1C[C@@H](C(=O)N[C@H](CC[C@H](Cc2ccccc2)NC(=O)OCc2cncs2)Cc2ccccc2)N(C(=O)N(C)Cc2csc(C(C)C)n2)C1` [Compound 30]: the IC50 reads like this: under setting [1], 0.17 µM; under setting [2], 0.36 µM.

As for `CC(C)c1nc(CN(C)C(=O)N2C[C@@H](N(C)C)C[C@H]2C(=O)N[C@H](CC[C@H](Cc2ccccc2)NC(=O)OCc2cncs2)Cc2ccccc2)cs1` [Compound 31], the 50% inhibitory concentration (IC50) is, setting by setting: under setting [1], 0.15 µM; under setting [2], 0.33 µM.

Turning to `CC(=O)N[C@H]1C[C@@H](C(=O)N[C@H](CC[C@H](Cc2ccccc2)NC(=O)OCc2cncs2)Cc2ccccc2)N(C(=O)N(C)Cc2csc(C(C)C)n2)C1` [Compound 36], the half-maximal inhibitory concentration (IC50) under setting [1] is under 0.1 µM and the concentration for half-maximal inhibition (IC50) under setting [2] worked out at 0.37 µM.

As to `CC(C)c1nc(CN(C)C(=O)N2CCC[C@H]2C(=O)N[C@H](CC[C@H](Cc2ccccc2)NC(=O)OCc2cncs2)Cc2ccccc2)cs1` [Compound 39], the IC50 amounted to 0.13 µM under setting [1] and 0.26 µM under setting [2].

For the compound `CC(C)c1nc(CN(C)C(=O)N2CCC[C@@H]2C(=O)N[C@H](CC[C@H](Cc2ccccc2)NC(=O)OCc2cncs2)Cc2ccccc2)cs1` [Compound 42], the IC50 is 0.11 µM under setting [1] and 0.25 µM under setting [2].

As to `CC(C)c1nc(CN(C)C(=O)N2Cc3nc[nH]c3C[C@H]2C(=O)N[C@H](CC[C@H](Cc2ccccc2)NC(=O)OCc2cncs2)Cc2ccccc2)cs1` [Compound 49], the IC50 under setting [1] amounted to 0.19 µM and the concentration for half-maximal inhibition (IC50) under setting [2] turned out to be 0.37 µM.
